The subject of this assay is MCF-7 cells. Nature of the assay: In vitro test of cell activity (MCF-7 cells, insulin stimulation, ELISA-One fluorescence). It counts as cell-based. The note with it: Homo sapiens, MCF7, MCF-7 cells; for inhibition at 0.5 µM: conc. 0.5 μM; for inhibition at 1 µM: conc. 1 μM; for inhibition at 0.25 µM: conc. 0.25 μM. The method in brief: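 Fluorescence ELISA-One read-out on cell lysates, antibody-captured 1 h at room temperature. Before lysis, MCF-7 cells (2.5×10^4/well) were pretreated 2 h with compound in serum-free medium, single dose for screening or a dilution series for IC50, then stimulated 30 min with insulin ([…] final).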

Our source for the inhibition and IC50 values is patent US9868737B2, “Pyridino[1,2-A]pyrimidone analogue used as MTOR/P13K inhibitor” (CISEN PHARMACEUTICAL CO., LTD., priority 2014, dated 2018).

Like-named read-outs stand apart in the source and are kept apart here.

Usually inhibition stands for the change of the read-out against control, counted positive when it falls. Broadly, the IC50 is the concentration needed to halve the response being measured. As for `COc1ncc(-c2ccc3ncc(OC)c(=O)n3c2)cc1NS(=O)(=O)c1ccc(F)cc1F` [compound 103, 2,4-difluoro-N-(2-methoxy-5-(3-methoxy-4-oxo-4H-pyrido[1,2-a]pyrimidin-7-yl)pyridin-3-yl) benzsulfamide], the inhibition at 0.5 µM runs as follows: (read-out: % inhibition AKT) 94.5%; (read-out: % inhibition p70s6k) 89.4%. The IC50 by setting is: (read-out: IC50 p-AKT) at most 50 nM; (read-out: IC50 p-p70S6K) 50 to 100 nM.
For the compound `COc1ncc(-c2ccc3ncc(OC)c(=O)n3c2)cc1NS(=O)(=O)c1ccccc1F` [compound 107], the inhibition at 0.5 µM worked out at 94.5% (read-out: % inhibition AKT) and 91% (read-out: % inhibition p70s6k). The IC50 is at most 50 nM (read-out: IC50 p-AKT) and 50 to 100 nM (read-out: IC50 p-p70S6K).
As for `COc1ncc(-c2ccc3ncc(OCCO)c(=O)n3c2)cc1NS(=O)(=O)c1sc(C)nc1C` [compound 180], the IC50 (read-out: IC50 p-AKT) was at most 50 nM.
As to `COCOCCOc1cnc2ccc(-c3cnc(OC)c(NS(=O)(=O)c4sc(C)nc4C)c3)cn2c1=O` [compound 188], where the note is “read-out: IC50 p-AKT”, the IC50 is at most 50 nM.
In the case of `COc1ncc(-c2ccc3nccc(=O)n3c2C)cc1NS(=O)(=O)c1ccccc1Cl` [compound 54], the inhibition at 0.5 µM reads like this: (read-out: % inhibition AKT) 83.1%; (read-out: % inhibition p70s6k) 50.8%.
For `COc1ncc(-c2ccc3nccc(=O)n3c2)cc1NS(=O)(=O)c1cnc2ccccc2c1` [compound 38], the inhibition at 0.5 µM (read-out: % inhibition AKT) turned out to be 91.5% and the inhibition at 0.5 µM (read-out: % inhibition p70s6k) is 79.4%. Moreover, the IC50 is at most 50 nM (read-out: IC50 p-AKT) and over 250 nM (read-out: IC50 p-p70S6K).
Take `CCOc1ncc(-c2ccc3nccc(=O)n3c2)cc1NS(=O)(=O)c1ccccc1F` [compound 29]: the inhibition at 1 µM stood at 59.6% (read-out: % inhibition AKT) and 26.5% (read-out: % inhibition p70s6k).
Regarding `COc1ncc(-c2ccc3ncc(OCC4COC4)c(=O)n3c2)cc1NS(=O)(=O)c1ccccc1F` [compound 256], the IC50 (read-out: IC50 p-AKT) is at most 50 nM.
Turning to `COCCOc1cnc2ccc(-c3cnc(OC)c(NS(=O)(=O)c4ccc(F)cc4Br)c3)cn2c1=O` [compound 279], the IC50 (read-out: IC50 p-AKT) was at most 50 nM.
Same read-out and setting: next, `CNc1cnc2ccc(-c3cnc(OC)c(NS(=O)(=O)c4ccc(F)cc4F)c3)cn2c1=O` [compound 95, 2,4-difluoro-N-(2-methoxy-5-(3-(methylamino)-4-oxo-4H-pyrido[1,2-a]pyrimidin-7-yl)pyridin-3-yl)benzulfamide]: 100 to 250 nM; `COc1ncc(-c2ccc3ncc(N)c(=O)n3c2)cc1NS(=O)(=O)c1sc(C)nc1C` [compound 93]: at most 50 nM.
The same measure, in the same setting: with `COCCOc1cnc2ccc(-c3cnc(OC)c(NS(=O)(=O)c4ccc(F)c(F)c4F)c3)cn2c1=O` [compound 274] the figure was 50 to 100 nM.
Regarding `COc1ncc(-c2ccc3ncc(Cl)c(=O)n3c2)cc1NS(=O)(=O)c1[nH]c(C)nc1C` [compound 165], the inhibition at 0.25 µM (read-out: % inhibition AKT) amounted to 49.5% and the inhibition at 0.25 µM (read-out: % inhibition p70s6k) came to 63.7%.
Regarding `COc1ncc(-c2ccc3ncc(Cl)c(=O)n3c2)cc1NS(=O)(=O)c1ccc(C)cc1Cl` [compound 152], the inhibition at 0.25 µM (read-out: % inhibition AKT) worked out at 94% and the inhibition at 0.25 µM (read-out: % inhibition p70s6k) was 83.9%. Moreover, the IC50 (read-out: IC50 p-AKT) was at most 50 nM and the IC50 (read-out: IC50 p-p70S6K) was at most 50 nM.
For the compound `CCOCCOc1cnc2ccc(-c3cnc(OC)c(NS(=O)(=O)c4sc(C)nc4C)c3)cn2c1=O` [compound 199], for the setting “read-out: IC50 p-AKT”, the IC50 is at most 50 nM.
With `COc1ncc(-c2ccc3ncc(Cl)c(=O)n3c2)cc1NS(=O)(=O)c1ncccc1Cl` [compound 159], the inhibition at 0.25 µM by setting is: (read-out: % inhibition AKT) 68.6%; (read-out: % inhibition p70s6k) 84.8%. The IC50 by setting is: (read-out: IC50 p-AKT) 100 to 250 nM; (read-out: IC50 p-p70S6K) 100 to 250 nM.
For `COc1ncc(-c2cn3c(=O)ccnc3cc2F)cc1NS(=O)(=O)c1ccccc1F` [compound 113], the inhibition at 0.5 µM was -7.6% (read-out: % inhibition AKT) and 4.6% (read-out: % inhibition p70s6k).
For the compound `COc1ncc(-c2ccc3ncc(F)c(=O)n3c2)cc1NS(=O)(=O)c1ccc(C#N)cc1` [compound 70], the inhibition at 0.5 µM (read-out: % inhibition AKT) was 75.4% and the inhibition at 0.5 µM (read-out: % inhibition p70s6k) was found to be 99%. In addition, the IC50 is, setting by setting: (read-out: IC50 p-AKT) 50 to 100 nM; (read-out: IC50 p-p70S6K) 50 to 100 nM.
With `COc1ncc(-c2cn3c(=O)ccnc3cc2F)cc1NS(=O)(=O)c1cc(F)ccc1F` [compound 116], the inhibition at 0.5 µM was found to be 52.3% (read-out: % inhibition AKT) and 6.7% (read-out: % inhibition p70s6k).
In the case of `COc1ncc(-c2ccc3nccc(=O)n3c2)cc1NS(=O)(=O)c1ccc(Cl)cc1` [compound 23], the inhibition at 1 µM (read-out: % inhibition AKT) is 95.7% and the inhibition at 1 µM (read-out: % inhibition p70s6k) amounted to 93.9%. Moreover, the IC50 (read-out: IC50 p-AKT) is at most 50 nM and the IC50 (read-out: IC50 p-p70S6K) lay in the range of 100 to 250 nM.
As to `COc1ncc(-c2ccc3nccc(=O)n3c2)cc1NS(=O)(=O)c1ccc(C)s1` [compound 35], the inhibition at 0.5 µM runs as follows: (read-out: % inhibition AKT) 93.3%; (read-out: % inhibition p70s6k) 86%. Further, the half-inhibitory concentration (IC50) is at most 50 nM (read-out: IC50 p-AKT) and at most 50 nM (read-out: IC50 p-p70S6K).
Take `COc1ncc(-c2cn3c(=O)ccnc3cc2C)cc1NS(=O)(=O)c1ccc(F)cc1F` [compound 121, 2,4-difluoro-N-(2-methoxy-5-(8-methyl-4-oxo-4H-pyrido[1,2-a]pyrimidin-7-yl)pyridin-3-yl)benzsulfamide]: the inhibition at 0.5 µM (read-out: % inhibition AKT) is -27.1% and the inhibition at 0.5 µM (read-out: % inhibition p70s6k) is -2.2%.
On to `COc1ncc(-c2ccc3ncc(Cl)c(=O)n3c2)cc1NS(=O)(=O)c1ccc(F)c(F)c1` [compound 145], for which the inhibition at 0.5 µM stood at 94.9% (read-out: % inhibition AKT) and 90.5% (read-out: % inhibition p70s6k). In addition, the IC50 is at most 50 nM (read-out: IC50 p-AKT) and 100 to 250 nM (read-out: IC50 p-p70S6K).
Turning to `COc1ncc(-c2ccc3ncc(OC)c(=O)n3c2)cc1NS(=O)(=O)c1ccc(Cl)s1` [compound 108], the inhibition at 0.25 µM was found to be 92.4% (read-out: % inhibition AKT) and 82.5% (read-out: % inhibition p70s6k). In addition, the IC50 (read-out: IC50 p-AKT) was at most 50 nM and the IC50 (read-out: IC50 p-p70S6K) is at most 50 nM.
As for `COc1ncc(-c2ccc3ncc(Cl)c(=O)n3c2)cc1NS(=O)(=O)c1ccccc1F` [compound 137], the inhibition at 0.5 µM reads like this: (read-out: % inhibition AKT) 93.3%; (read-out: % inhibition p70s6k) 87.1%. The IC50 was at most 50 nM (read-out: IC50 p-AKT) and 100 to 250 nM (read-out: IC50 p-p70S6K).
With `COc1ncc(-c2ccc3ncc(N)c(=O)n3c2)cc1NS(=O)(=O)c1sccc1C` [compound 92], for the setting “read-out: IC50 p-AKT”, the IC50 is at most 50 nM.
As for `COc1ncc(-c2ccc3ncc(Cl)c(=O)n3c2)cc1NS(=O)(=O)c1nc(N)sc1C` [compound 170], the IC50 (read-out: IC50 p-AKT) was at most 50 nM.
For `COc1ncc(-c2ccc3nc(C)cc(=O)n3c2)cc1NS(=O)(=O)c1ccc(F)cc1F` [compound 221, 2,4-difluoro-N-(2-methoxy-5-(2-methyl-4-oxo-4H-pyrido[1,2-a]pyrimidin-7-yl)pyridin-3-yl)benzsulfamide], the inhibition at 0.25 µM by setting is: (read-out: % inhibition AKT) -42%; (read-out: % inhibition p70s6k) 6.8%.
For `COc1ncc(-c2ccc3ncc(-n4ccc(C)n4)c(=O)n3c2)cc1NS(=O)(=O)c1ccc(Cl)s1` [compound 217], in that order: 54% and 67.7%.
Turning to `COc1ncc(-c2ccc3ncc(OCCOC(C)C)c(=O)n3c2)cc1NS(=O)(=O)c1sc(C)nc1C` [compound 194], under “read-out: IC50 p-AKT”, the IC50 was at most 50 nM.
Turning to `COc1ncc(-c2ccc3nccc(=O)n3n2)cc1NS(=O)(=O)c1ccc(F)cc1F` [compound 71, 2,4-difluoro-N-(2-methoxy-5-(4-oxo-4H-pyrimido[1,2-b]pyridazin-7-yl)pyridin-3-yl)benzsulfamide], the inhibition at 0.5 µM (read-out: % inhibition AKT) is 63.2% and the inhibition at 0.5 µM (read-out: % inhibition p70s6k) was 20.7%.
On to `COc1ncc(-c2ccc3ncc(Cl)c(=O)n3c2)cc1NS(=O)(=O)c1nc(C)c(C)s1` [compound 157], for which the inhibition at 0.25 µM was determined as 79.2% (read-out: % inhibition AKT) and 90.8% (read-out: % inhibition p70s6k). Moreover, the IC50 is at most 50 nM (read-out: IC50 p-AKT) and 50 to 100 nM (read-out: IC50 p-p70S6K).
With `COc1ncc(-c2ccc3ncc(Cl)c(=O)n3c2)cc1NS(=O)(=O)c1sc(NC(C)=O)nc1C` [compound 167], the IC50 (read-out: IC50 p-AKT) lay within 100 to 250 nM.
On the same count and under the same terms, with `COCCOc1cnc2ccc(-c3cnc(OC)c(NS(=O)(=O)c4ccc(F)cc4Cl)c3)cn2c1=O` [compound 213] the figure was 50 to 100 nM.
For the compound `COc1ncc(-c2ccc3nccc(=O)n3c2C)cc1NS(=O)(=O)c1c(F)cccc1F` [compound 58], the inhibition at 0.5 µM (read-out: % inhibition AKT) came out at 60.3% and the inhibition at 0.5 µM (read-out: % inhibition p70s6k) was 32.8%.
In the same order, the values of `COc1ncc(-c2cn3c(=O)ccnc3cc2C)cc1NS(=O)(=O)c1ccc(F)cc1C` [compound 126] are -12.7% and 2.4%.
Consider `COc1ncc(-c2ccc3ncc(Cl)c(=O)n3c2)cc1NS(=O)(=O)c1ccc(C)nc1C` [compound 169], for which the IC50 (read-out: IC50 p-AKT) was at most 50 nM.
Take `COc1ncc(-c2ccc3nccc(=O)n3n2)cc1NS(=O)(=O)c1ccccc1F` [compound 72]: the inhibition at 0.5 µM (read-out: % inhibition AKT) was 51.1% and the inhibition at 0.5 µM (read-out: % inhibition p70s6k) stood at 10.2%.
Take `COc1ncc(-c2ccc3ncc(Cl)c(=O)n3c2)cc1NS(=O)(=O)c1nnc(C)s1` [compound 158]: the inhibition at 0.25 µM runs as follows: (read-out: % inhibition AKT) -21.8%; (read-out: % inhibition p70s6k) 5.1%.
In the case of `COc1ncc(-c2ccc3ncc(-n4ccc(C)n4)c(=O)n3c2)cc1NS(=O)(=O)c1ccc(F)cc1Cl` [compound 219], the inhibition at 0.25 µM runs as follows: (read-out: % inhibition AKT) 41.7%; (read-out: % inhibition p70s6k) 13.4%.
Turning to `COc1ncc(-c2ccc3ncc(Cl)c(=O)n3c2)cc1NS(=O)(=O)c1ccccc1Cl` [compound 136], the inhibition at 0.5 µM reads like this: (read-out: % inhibition AKT) 95.5%; (read-out: % inhibition p70s6k) 87.2%. Further, the IC50 was at most 50 nM (read-out: IC50 p-AKT) and 50 to 100 nM (read-out: IC50 p-p70S6K).
On to `COc1ncc(-c2ccc3nccc(=O)n3c2C)cc1NS(=O)(=O)c1ccc(F)cc1F` [compound 52, 2,4-difluoro-N-(2-methoxy-5-(6-methyl-4-oxo-4H-pyrido[1,2-a]pyrimidin-7-yl)pyridin-3-yl)benzsulfamide], for which the inhibition at 0.5 µM (read-out: % inhibition AKT) came out at 69.3% and the inhibition at 0.5 µM (read-out: % inhibition p70s6k) amounted to 50.3%.
